Results from ChEMBL document CHEMBL1143883, “Fluoroolefins as amide bond mimics in dipeptidyl peptidase IV inhibitors” (Bioorg Med Chem Lett, 2008).

Columns and labels:
[1] = Half life in rat at 1 mg/kg, iv or 2 mg/kg, po; type: ADME, organism-based; conditions: in vivo
[2] = target: Voltage-gated inwardly rectifying potassium channel KCNH2 (Homo sapiens, UniProt Q12809)
[3] = Plasma clearance in rat at 1 mg/kg, iv or 2 mg/kg, po; type: ADME, organism-based
[4] = Oral bioavailability in rat at 2 mg/kg; type: ADME, organism-based; conditions: in vivo
[5] = Metabolic stability in rat liver microsomes after 60 mins in presence of NADPH; type: ADME, Microsome; conditions: read-out: Stability
[6] = Metabolic stability in rat hepatocytes after 60 mins; type: ADME, cell-based, Hepatocyte; conditions: read-out: Stability
[7] = Mean residence time in rat at 1 mg/kg, iv or 2 mg/kg, po; type: ADME, organism-based; conditions: in vivo
[8] = system: Liver microsomes; assay: Metabolic stability in rat liver microsome assessed as covalent binding per mg of protein; type: ADME
[9] = system: Liver microsomes; assay: Metabolic stability in human liver microsome assessed as covalent binding per mg of protein; type: ADME

Voltage-gated inwardly rectifying potassium channel KCNH2, sequence (Q12809 whole entry): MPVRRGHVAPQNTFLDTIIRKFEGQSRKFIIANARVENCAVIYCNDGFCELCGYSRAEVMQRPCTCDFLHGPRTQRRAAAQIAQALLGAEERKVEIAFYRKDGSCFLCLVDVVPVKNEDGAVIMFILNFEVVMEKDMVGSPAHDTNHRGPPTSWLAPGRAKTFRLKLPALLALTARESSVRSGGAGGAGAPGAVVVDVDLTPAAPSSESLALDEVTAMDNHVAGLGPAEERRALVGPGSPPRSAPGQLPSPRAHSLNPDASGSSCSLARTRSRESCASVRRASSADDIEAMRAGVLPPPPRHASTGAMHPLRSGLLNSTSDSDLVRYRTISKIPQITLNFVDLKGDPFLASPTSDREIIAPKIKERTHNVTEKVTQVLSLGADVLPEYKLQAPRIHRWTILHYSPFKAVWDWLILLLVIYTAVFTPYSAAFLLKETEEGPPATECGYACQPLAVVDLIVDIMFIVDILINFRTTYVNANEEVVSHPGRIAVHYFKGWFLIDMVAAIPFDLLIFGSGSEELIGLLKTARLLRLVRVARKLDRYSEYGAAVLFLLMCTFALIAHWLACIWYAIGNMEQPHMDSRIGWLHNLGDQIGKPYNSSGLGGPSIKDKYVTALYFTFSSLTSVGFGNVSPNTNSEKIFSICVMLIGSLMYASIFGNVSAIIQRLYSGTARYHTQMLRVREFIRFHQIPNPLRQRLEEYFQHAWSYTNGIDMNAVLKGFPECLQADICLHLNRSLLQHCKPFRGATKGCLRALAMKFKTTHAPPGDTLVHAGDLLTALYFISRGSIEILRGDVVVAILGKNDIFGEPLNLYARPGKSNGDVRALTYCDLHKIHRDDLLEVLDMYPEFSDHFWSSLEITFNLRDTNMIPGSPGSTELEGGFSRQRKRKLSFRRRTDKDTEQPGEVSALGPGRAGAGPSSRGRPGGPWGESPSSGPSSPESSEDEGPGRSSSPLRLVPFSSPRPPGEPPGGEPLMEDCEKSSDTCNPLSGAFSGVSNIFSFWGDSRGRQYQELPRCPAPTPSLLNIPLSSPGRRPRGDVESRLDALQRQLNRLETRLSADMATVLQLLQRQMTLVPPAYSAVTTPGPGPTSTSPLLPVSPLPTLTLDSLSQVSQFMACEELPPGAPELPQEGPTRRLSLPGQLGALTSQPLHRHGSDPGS

SMILES | half-life [1] [min] | IC50 [2] [µM] | clearance [3] [mL/min/kg] | bioavailability [4] [%] | remaining at 1 h [5] [%] | remaining at 1 h [6] [%] | MRT [7] [h] | Stability [8] [pmol/mg] | Stability [9] [pmol/mg]
CS(=O)(=O)c1ccc(-c2noc([C@@H](CCO)[C@H](N)C(F)=C3CCCC3)n2)c(Cl)c1.O=C(O)C(F)(F)F | 96 | 47 | 51 | 4 | – | – | – | – | –
C[C@H](c1nc(-c2ccc(S(C)(=O)=O)cc2Cl)no1)[C@H](N)C(=O)N1CCCC1.O=C(O)C(F)(F)F | 51.6 | – | 6 | 27 | 56 | 88 | – | – | –
CC(c1nc(-c2ccc(S(C)(=O)=O)cc2Cl)no1)[C@H](N)C(F)=C1CCCC1.O=C(O)C(F)(F)F (stereo partly drawn) | – | – | 20 | 62 | – | 3 | 2 | – | –
CS(=O)(=O)c1ccc(-c2noc([C@@H](CC3CC3)[C@H](N)C(F)=C3CCCC3)n2)c(Cl)c1.O=C(O)C(F)(F)F | 90 | – | 54 | 1 | – | – | – | – | –
C[C@H](c1nc(-c2ccc(S(=O)(=O)C[14CH3])cc2Cl)no1)[C@H](N)C(F)=C1CCCC1.O=C(O)C(F)(F)F | – | – | – | – | – | – | – | 662 | 287
